The values below are quoted from earlier work in patent US6387949B1, “Substituted urea compounds useful in pain management” (AstraZeneca Canada Inc., priority 1998, dated 2002).

The conditions of data set [1]: background statement.
Another data set has as its target δ receptor (Homo sapiens, UniProt P41143). The conditions noted are these: background statement.

Sequence of δ receptor (P41143 whole entry): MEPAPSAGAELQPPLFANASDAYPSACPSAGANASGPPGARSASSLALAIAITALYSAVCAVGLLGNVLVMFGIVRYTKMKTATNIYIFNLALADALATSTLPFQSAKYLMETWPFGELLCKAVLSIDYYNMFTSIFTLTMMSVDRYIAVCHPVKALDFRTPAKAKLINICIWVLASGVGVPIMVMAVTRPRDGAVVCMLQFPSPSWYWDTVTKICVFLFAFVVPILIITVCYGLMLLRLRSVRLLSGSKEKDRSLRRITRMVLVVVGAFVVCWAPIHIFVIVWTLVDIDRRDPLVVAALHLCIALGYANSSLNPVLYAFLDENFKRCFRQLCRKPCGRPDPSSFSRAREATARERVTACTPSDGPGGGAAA

`Oc1ccc2c3c1O[C@H]1c4[nH]c5ccccc5c4C[C@@]4(O)[C@@H](C2)N(CC2CC2)CC[C@]314` [naltrindole]: in data set [1], the analgesic activity entry is on record as “no analgesic activity”. Also, on δ receptor, the “selectivity for the δ receptor vs. μ receptor binding” value is under 10 fold.
